Inconclusive results and toxic doses are left out.

Consider 24 molecules from PubChem BioAssay AID330 (DTP/NCI, 2004).

For the assay, the system named is P388 leukemia ip, CD2F1 mice, survival T/C. The assay is described as follows: NCI In Vivo Anticancer Drug Screen. Data for tumor model P388 Leukemia (intraperitoneal) in CD2F1 (CDF1) mice. As to conditions: endpoint: median survival time, higher = longer survival. Put shortly: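 Mice carrying the transplanted tumor received test compound or vehicle. Survival was recorded in each group, and the value is the treated-group measurement divided by that of the vehicle-treated control group.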

Where [1] appears, read: dose: 3.0 mg/kg/injection, schedule: Q01DX005 (ip), vehicle: Klucel (hydroxypropylcellulose) (HPC).
The mark [2] stands for this setting: dose: 6.0 mg/kg/injection, schedule: Q01DX005 (ip), vehicle: Klucel (hydroxypropylcellulose) (HPC).
The mark [3] stands for this setting: dose: 12.0 mg/kg/injection, schedule: Q01DX005 (ip), vehicle: Klucel (hydroxypropylcellulose) (HPC).
[4] abbreviates: dose: 24.0 mg/kg/injection, schedule: Q01DX005 (ip), vehicle: Klucel (hydroxypropylcellulose) (HPC).
Setting [5] is: dose: 50.0 mg/kg/injection, schedule: Q01DX009 (ip), vehicle: saline.
Setting [6] is: dose: 100.0 mg/kg/injection, schedule: Q01DX009 (ip), vehicle: saline.
The mark [7] stands for this setting: dose: 200.0 mg/kg/injection, schedule: Q01DX009 (ip), vehicle: saline.
Where [8] appears, read: dose: 50.0 mg/kg/injection, schedule: Q01DX005 (ip), vehicle: saline with Tween-80.
The mark [9] stands for this setting: dose: 100.0 mg/kg/injection, schedule: Q01DX005 (ip), vehicle: saline with Tween-80.
The mark [10] stands for this setting: dose: 200.0 mg/kg/injection, schedule: Q01DX005 (ip), vehicle: saline with Tween-80.
Where [11] appears, read: dose: 60.0 mg/kg/injection, schedule: Q01DX005 (ip), vehicle: saline with Tween-80.
The mark [12] stands for this setting: dose: 120.0 mg/kg/injection, schedule: Q01DX005 (ip), vehicle: saline with Tween-80.
[13] abbreviates: dose: 240.0 mg/kg/injection, schedule: Q01DX005 (ip), vehicle: saline with Tween-80.
Where [14] appears, read: dose: 50.0 mg/kg/injection, schedule: Q01DX009 (ip), vehicle: saline with Tween-80.
Setting [15] is: dose: 100.0 mg/kg/injection, schedule: Q01DX009 (ip), vehicle: saline with Tween-80.

Consider `Cc1cc(O)c2c(c1)C(=O)c1c(c(O)cc(O)c1-c1c(O)cc(O)c3c1C(=O)c1cc(C)cc(O)c1C3=O)C2=O`, for which the T/C under setting [1] is 95 % of control; the T/C under setting [2] is 99 % of control; the T/C under setting [3] is 96 % of control; the T/C (dose: 12.5 mg/kg/injection, schedule: Q01DX005 (ip), vehicle: Klucel (hydroxypropylcellulose) (HPC)) is 91 % of control; the T/C under setting [4] is 93 % of control; the T/C (dose: 25.0 mg/kg/injection, schedule: Q01DX005 (ip), vehicle: Klucel (hydroxypropylcellulose) (HPC)) was 93 % of control.
`C/C=C1/CN2C3CC1C1(C(=O)OC)C(OC(C)=O)[C@]4(C[C@H]21)c1ccccc1N(C)C34` (stereo not given in full): the T/C reads like this: under setting [1], 94 % of control; under setting [2], 100 % of control; under setting [3], 98 % of control; under setting [4], 106 % of control.
With `CCOC(OCC)c1cccc([N+](=O)[O-])c1`, the T/C is, setting by setting: (dose: 100.0 mg/kg/injection, schedule: Q04DX003 (ip), vehicle: saline with Tween-80) 112 % of control; (dose: 200.0 mg/kg/injection, schedule: Q04DX003 (ip), vehicle: saline with Tween-80) 106 % of control; (dose: 400.0 mg/kg/injection, schedule: Q04DX003 (ip), vehicle: saline with Tween-80) 117 % of control.
On to `CCOC(=O)C(C)(NC(=O)CN)C1CC1` (stereo not given), for which the T/C under setting [5] is 90 % of control, the T/C under setting [6] was 94 % of control and the T/C under setting [7] was 97 % of control.
The matching figures for `C/C(=N/NS(=O)(=O)c1ccc(C)cc1)C(=NO)/C(C)=N\NS(=O)(=O)c1ccc(C)cc1`: 92 % of control, 100 % of control and 101 % of control.
Take `O=C1CSC(c2cc(O)ccc2O)N1c1nncs1` (stereo not given): the T/C reads like this: under setting [8], 90 % of control; under setting [9], 97 % of control; under setting [10], 91 % of control.
On to `CC(=O)Nc1ccc(/C=N/NC(=O)COc2ccccc2)cc1`, for which the T/C by setting is: (dose: 60.0 mg/kg/injection, schedule: Q01DX005 (ip), vehicle: saline) 100 % of control; (dose: 120.0 mg/kg/injection, schedule: Q01DX005 (ip), vehicle: saline) 100 % of control; (dose: 240.0 mg/kg/injection, schedule: Q01DX005 (ip), vehicle: saline) 100 % of control.
On to `O=C1NC2Cc3ccccc3C(C2)O1` (stereo not given), for which the T/C is 101 % of control under setting [11], 100 % of control under setting [12] and 93 % of control under setting [13].
Take `CC(=O)O.[Cd]`: the T/C (dose: 1.25 mg/kg/injection, schedule: Q01DX009 (ip), vehicle: saline) is 95 % of control; the T/C (dose: 1.25 mg/kg/injection, schedule: Q04DX003 (ip), vehicle: saline) is 90 % of control; the T/C (dose: 2.5 mg/kg/injection, schedule: Q01DX009 (ip), vehicle: saline) was 100 % of control; the T/C (dose: 2.5 mg/kg/injection, schedule: Q04DX003 (ip), vehicle: saline) was 90 % of control; the T/C (dose: 5.0 mg/kg/injection, schedule: Q01DX009 (ip), vehicle: saline) was 100 % of control; the T/C (dose: 5.0 mg/kg/injection, schedule: Q04DX003 (ip), vehicle: saline) was 95 % of control.
As to `CNC(=O)Nc1cccc(C2(C)OCCS2)c1` (stereo not given), the T/C was 100 % of control under setting [11], 94 % of control under setting [12] and 99 % of control under setting [13].
Turning to `CC1(C)O[Se](=O)OC1(C)C`, the T/C (dose: 1.56 mg/kg/injection, schedule: Q04DX003 (ip), vehicle: saline) is 103 % of control; the T/C (dose: 3.12 mg/kg/injection, schedule: Q04DX003 (ip), vehicle: saline) was 98 % of control; the T/C (dose: 6.25 mg/kg/injection, schedule: Q04DX003 (ip), vehicle: saline) is 90 % of control.
For the molecule `CN1C(=O)/C(=c2\sc3nc4ccccc4n3c2=O)c2cc(Br)ccc21`, the T/C by setting is: (dose: 100.0 mg/kg/injection, schedule: Q01DX001 (ip), vehicle: Klucel (hydroxypropylcellulose) (HPC)) 99 % of control; (dose: 200.0 mg/kg/injection, schedule: Q01DX001 (ip), vehicle: Klucel (hydroxypropylcellulose) (HPC)) 99 % of control; (dose: 400.0 mg/kg/injection, schedule: Q01DX001 (ip), vehicle: Klucel (hydroxypropylcellulose) (HPC)) 101 % of control.
As to `CCCCN1C(=O)CC(=O)N(c2ccccc2)C1=O`, the T/C by setting is: under setting [5], 99 % of control; under setting [6], 103 % of control; under setting [7], 93 % of control.
In the case of `CN(C)c1ccc2[nH]cc(C(=O)O)c(=O)c2c1`, the T/C is, setting by setting: (dose: 7.5 mg/kg/injection, schedule: Q01DX005 (ip), vehicle: Klucel (hydroxypropylcellulose) (HPC)) 99 % of control; (dose: 15.0 mg/kg/injection, schedule: Q01DX005 (ip), vehicle: Klucel (hydroxypropylcellulose) (HPC)) 102 % of control; (dose: 30.0 mg/kg/injection, schedule: Q01DX005 (ip), vehicle: Klucel (hydroxypropylcellulose) (HPC)) 102 % of control.
For `OC1c2cc(Cl)ccc2-c2c(N=Cc3ccc4c(c3)OCO4)cc(Cl)cc21` (stereo not given), the T/C runs as follows: under setting [11], 91 % of control; under setting [12], 99 % of control; under setting [13], 98 % of control.
In the case of `Cc1c(CNc2ccc(C(=O)NC(CC(=O)O)C(=O)O)cc2)ccc2nc(N)nc(N)c12` (stereo not given), the T/C reads like this: (dose: 12.5 mg/kg/injection, schedule: Q04DX003 (ip), vehicle: saline with Tween-80) 159 % of control; (dose: 16.5 mg/kg/injection, schedule: Q04DX003 (ip), vehicle: saline with Tween-80) 200 % of control.
Consider `N#C/C(=C/N)C(N)=O`, for which the T/C was 104 % of control under setting [14]; 103 % of control under setting [15]; 103 % of control (dose: 200.0 mg/kg/injection, schedule: Q01DX009 (ip), vehicle: saline with Tween-80).
As to `O=S(=O)(Nc1ccc(Cl)cc1C(F)(F)F)c1ccc(F)cc1`, the T/C is 100 % of control under setting [11] and 110 % of control under setting [12].
For `Cc1ccc(S(=O)(=O)OCC(C)(C)CC#N)cc1`, the T/C by setting is: (dose: 100.0 mg/kg/injection, schedule: Q04DX003 (ip), vehicle: Klucel (hydroxypropylcellulose) (HPC)) 96 % of control; (dose: 200.0 mg/kg/injection, schedule: Q04DX003 (ip), vehicle: Klucel (hydroxypropylcellulose) (HPC)) 96 % of control; (dose: 400.0 mg/kg/injection, schedule: Q04DX003 (ip), vehicle: Klucel (hydroxypropylcellulose) (HPC)) 100 % of control.
In the case of `CCCCP(=O)(CCCC)CCCC.CCCCP(=O)(CCCC)CCCC.CCCCP(=O)(CCCC)CCCC.CCCCP(=O)(CCCC)CCCC.[Mn+2].[O-][Cl+3]([O-])([O-])O`, the T/C (dose: 50.0 mg/kg/injection, schedule: Q01DX009 (ip), vehicle: saline + Tween-80 + alcohol) is 101 % of control; the T/C under setting [14] was 104 % of control; the T/C (dose: 100.0 mg/kg/injection, schedule: Q01DX009 (ip), vehicle: saline + Tween-80 + alcohol) was 116 % of control; the T/C under setting [15] was 119 % of control; the T/C (dose: 200.0 mg/kg/injection, schedule: Q01DX009 (ip), vehicle: saline + Tween-80 + alcohol) is 122 % of control.
Regarding `N#CO`, the T/C under setting [15] was 90 % of control.
Consider `CCC1(CC)c2c(ccc(OC)c2OC)C=C2c3cc4c(cc3CCN21)OCO4`, for which the T/C by setting is: (dose: 0.63 mg/kg/injection, schedule: Q01DX009 (ip), vehicle: distilled water + Tween-80) 108 % of control; (dose: 0.63 mg/kg/injection, schedule: Q01DX009 (ip), vehicle: water) 94 % of control; (dose: 1.25 mg/kg/injection, schedule: Q01DX009 (ip), vehicle: distilled water + Tween-80) 108 % of control; (dose: 1.25 mg/kg/injection, schedule: Q01DX009 (ip), vehicle: water) 103 % of control; (dose: 2.5 mg/kg/injection, schedule: Q01DX009 (ip), vehicle: distilled water + Tween-80) 123 % of control; (dose: 2.5 mg/kg/injection, schedule: Q01DX009 (ip), vehicle: water) 112 % of control.
On to `COc1ccc(Cc2cc3c(cc2OCCOC(C)=O)OCO3)cc1`, for which the T/C is 110 % of control under setting [8], 105 % of control under setting [9] and 103 % of control under setting [10].
With `CC(C)N1CCN(c2ccncc2S(=O)(=O)N2CCCCC2)CC1`, the T/C was 89 % of control under setting [5], 96 % of control under setting [6] and 90 % of control under setting [7].
